Test results taken from patent US20250171499A1, “PHARMACEUTICAL FORMULATIONS AND METHODS FOR THE TREATMENT OF METABOLIC AND LIVER DISORDERS” (Viking Therapeutics, Inc., priority 2022, published 2025).

Key:
[1] = Pharmacokinetics study of formulations, subcutaneous dosing; type: in vivo; conditions: Formulation 2; SC 0.2 mg/kg; male cynomolgus monkeys
Protocol: Formulation 1 included the compound in a vehicle of 0.1% bovine serum albumin in phosphate buffered saline solution. […] Samples were obtained at 1, 4, 8, 12, 24, 48, 72, 96, 120, 168, 192, 240 and 336 hours after the single dose was administered.

GIP receptor = target: T1, GIP receptor (Homo sapiens, UniProt P48546); assay: Binding assay in the presence or absence of 2% human serum albumin, GIP receptor; conditions: IC50 with 2% HSA to IC50 with 0% HSA
T1 sequence (P48546 22-466): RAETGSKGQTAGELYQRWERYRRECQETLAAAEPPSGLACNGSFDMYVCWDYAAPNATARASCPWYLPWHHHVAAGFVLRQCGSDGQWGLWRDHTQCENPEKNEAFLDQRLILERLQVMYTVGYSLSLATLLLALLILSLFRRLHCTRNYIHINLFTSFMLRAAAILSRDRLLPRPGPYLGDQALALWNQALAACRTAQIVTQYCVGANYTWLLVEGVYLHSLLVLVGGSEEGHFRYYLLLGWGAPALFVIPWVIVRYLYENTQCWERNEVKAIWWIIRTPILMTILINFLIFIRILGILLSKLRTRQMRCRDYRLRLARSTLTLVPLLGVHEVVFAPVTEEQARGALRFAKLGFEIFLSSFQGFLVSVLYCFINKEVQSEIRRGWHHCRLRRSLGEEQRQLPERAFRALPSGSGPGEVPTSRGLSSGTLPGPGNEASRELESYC

GLP-1 receptor = GLP-1 receptor (Homo sapiens, UniProt P43220); conditions: IC50 with 2% HSA to IC50 with 0% HSA
Sequence of GLP-1 receptor (P43220 24-463, species assumed): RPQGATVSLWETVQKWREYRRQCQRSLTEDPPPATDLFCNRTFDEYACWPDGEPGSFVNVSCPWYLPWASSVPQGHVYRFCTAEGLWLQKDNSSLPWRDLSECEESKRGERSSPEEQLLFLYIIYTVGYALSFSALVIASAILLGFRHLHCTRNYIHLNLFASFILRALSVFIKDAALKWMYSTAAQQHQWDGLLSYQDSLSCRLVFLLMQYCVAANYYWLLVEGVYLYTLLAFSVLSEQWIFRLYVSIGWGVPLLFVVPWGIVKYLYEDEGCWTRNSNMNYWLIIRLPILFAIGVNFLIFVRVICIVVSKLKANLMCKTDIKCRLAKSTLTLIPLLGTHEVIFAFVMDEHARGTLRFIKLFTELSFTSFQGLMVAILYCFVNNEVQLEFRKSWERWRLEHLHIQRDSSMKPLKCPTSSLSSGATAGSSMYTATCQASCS

## CC[C@H](C)[C@H](NC(=O)[C@H](CC(C)C)NC(=O)[C@H](Cc1c[nH]c2ccccc12)NC(=O)[C@H](CCC(N)=O)NC(=O)[C@@H](NC(=O)[C@H](Cc1ccccc1)NC(=O)[C@H](C)NC(=O)[C@H](CCCCNC(=O)COCCOCCNC(=O)COCCOCCNC(=O)CC[C@H](NC(=O)CCCCCCCCCCCCCCCCCCP(=O)(O)O)C(=O)O)NC(=O)[C@H](CCC(N)=O)NC(=O)[C@H](C)NC(=O)[C@@H](NC(=O)[C@H](CCCCN)NC(=O)[C@H](CC(=O)O)NC(=O)[C@H](CC(C)C)NC(=O)C(C)(C)NC(=O)[C@@H](NC(=O)[C@H](CO)NC(=O)[C@H](Cc1ccc(O)cc1)NC(=O)[C@H](CC(=O)O)NC(=O)[C@H](CO)NC(=O)[C@@H](NC(=O)[C@H](Cc1ccccc1)NC(=O)[C@@H](NC(=O)CNC(=O)[C@H](CCC(=O)O)NC(=O)C(C)(C)NC(=O)[C@@H](N)Cc1ccc(O)cc1)[C@@H](C)O)[C@@H](C)O)[C@@H](C)CC)[C@@H](C)CC)C(C)C)C(=O)N[C@@H](C)C(=O)NCC(=O)NCC(=O)N1CCC[C@H]1C(=O)N[C@@H](CO)C(=O)N[C@@H](CO)C(=O)NCC(=O)N[C@@H](C)C(=O)N1CCC[C@H]1C(=O)N1CCC[C@H]1C(=O)N1CCC[C@H]1C(=O)N[C@@H](CO)C(N)=O [Compound 4]
[1]
  mean half life compared to tirzepatide: twice as long
GIP receptor
  GIP receptor Ratio of HSA:No HSA: 1.25
GLP-1 receptor
  GLP-1 receptor Ratio of HSA:No HSA: 6.42
